The test system of assay [1] is human melanomas cells (A375). Description: Cell viability of human melanoma cells (A375), FIG. 1. It counts as cell-based. Particulars: 0 to 20 mM, 72 h and 96 h. The method, then:
(§1) FIG. 1 discloses a study on viability cells of human melanomas cells (A375) in comparison to normal human melanocytes.
(§2) Doses of metformin used for this experiment are in a range between 0 to 20 mM at 72 h and 96 h.

Assay [2] concerns normal human melanocytes. The experiment in a line: Cell viability of normal human melanocytes, FIG. 1. It counts as cell-based. The settings on record: 0 to 20 mM, 72 h and 96 h. The method, then:
as §1, §2

For assay [3], the system named is freshly human melanoma cells isolated from patients. Description: Cell viability of freshly isolated human melanoma cells from patients, FIG. 1'. The settings on record: 0 to 10 mM, 72 h. It counts as cell-based. The method, then: FIG. 1′ discloses a study on viability cells of freshly human melanoma cells isolated from patients.
Doses of metformin used for this experiment are in a range between 0 to 10 mM at 72 h.

The subject of assay [4] is melanoma cells. The experiment in a line: Cell death by FACS analysis of propidium iodide uptake, FIG. 1''. It counts as cell-based. The method, then: Cell death was measured by FACS analysis of propidium iodide uptake.
For assay [5], the system named is human G361 cells. Description: Cell viability of human G361 cells, FIG. 2. It counts as cell-based. The settings on record: metformin 0 to 20 mM. From the text:
AICAR [aminoimidazole carboxamide ribonucleotide] an AMPK agonist, is used as reference.

In assay [6] the test system is AMPK. The experiment in a line: Cell viability after AMPK disruption using si-RNA (Western Blot), FIG. 3. It counts as cell-based.
For assay [7], the system named is A375 melanoma cells. Description: Mouse model of melanoma xenograft (A375), FIG. 4. It counts as in vivo, athymic nude mice. The settings on record: 2 mg/mouse/day by injection, after 23 days of treatment.
Assay [8] has as its system melanoma cells. Description: TUNEL assay of mouse tumor sections, FIG. 4'. It counts as in vivo. The settings on record: tumor sections of metformin-treated mice.
Assay [9] relates to B16 melanoma cells. Description: Syngenic model, allograft of B16 melanoma cells, FIG. 4''. Particulars: B16 allograft in C57B16 mice.

On to `CN(C)C(=N)NC(=N)N` [Metformin, N,N-dimethylimidodicarbonimidic diamide], for which, in [1], the “effect on cell viability of melanoma cells” value was “dose dependent effect”. The “effect on cell viability of melanocytes (normal cells)” value in [2] is on record as “no effect”. In addition, the “effect on cell viability of melanoma cells” value in assay [3] is “dose dependent effect”. For the same compound, the “cell death (propidium iodide uptake)” value in assay [4] is recorded as “induces a dose dependent cell death”. Moreover, the “percentage of cell viability” value in [5] was “significant dose dependent decrease”. Also, in [6], the “dependence of the effect on cell viability on AMPK” value is given as “independent on AMPK”. Further, in [7], the volume of melanoma entry is given as “decreases significantly” and the weight of melanoma result is listed as “decreases significantly”. Besides, the “TUNEL-positive cells in the tumors” value in assay [8] is listed as “increase in TUNEL-positive cells”. Also, in assay [9], the volume of tumor result is “diminished” and the weight of tumor entry was “diminished”.

On to `NC(=O)c1ncn([C@@H]2O[C@H](CO)[C@@H](O)[C@H]2O)c1N` [AICAR, aminoimidazole carboxamide ribonucleotide], for which the “percentage of cell viability” value in assay [5] is listed as “no significative effect”.

Values taken from US20130059916A1, “BIGUANIDE COMPOUNDS AND ITS USE FOR TREATING CANCER” (priority 2010, published 2013).
